For 59 molecules, RP-LC retention time results are on record in the METLIN SMRT retention time set (Domingo-Almenara et al. 2019).

Each structure is given as a SMILES string.

A short description of the data set: gradient 5% acetonitrile 3 min, to 50% in 2 min, to 85% in 15 min, held 3 min, 100 µL/min. The conditions noted are these: column: Zorbax Extend-C18 2.1 x 50 mm; eluents: water / acetonitrile, 0.1% formic acid. In short, it runs like this:
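Standards, all pure, were combined into mixtures of ~100 molecules and run at 100 μL/min on a Zorbax Extend-C18 column (2.1 × 50 mm, 1.8 μm) with water and acetonitrile, each containing 0.1% formic acid. A coupled quadrupole time-of-flight mass spectrometer operated in positive and negative ionization mode. Retention time values come from computationally picked adduct peaks, each inspected manually.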
In the case of `CCCCN1CCN(C(=O)c2cn3cc(Cl)ccc3n2)CC1`, the RP-LC retention time is 589 s. Take `CCC(C)C(NC(=O)CCc1ccccc1OC)C(=O)Nc1nc2ccccc2[nH]1` (centres undefined): the RP-LC retention time turned out to be 783 s. `CN(C)C(CNC(=O)c1cc(=O)c2cc(Cl)ccc2o1)c1ccccc1` (centres undefined) returned an RP-LC retention time of 650 s.

For `c1ccc(OCc2nc(-c3ccc4c(c3)nnn4CCN3CCCCC3)no2)cc1`, the RP-LC retention time came to 698 s. Molecule `COC(=O)c1ccc(NC(=O)N2CC(C)Oc3ccccc32)cc1` (centres undefined) had an RP-LC retention time of 879 s.

In turn, `CCS(=O)(=O)c1nc2ccc(NS(=O)(=O)c3cc(OC)ccc3OC)cc2s1` showed an RP-LC retention time of 833 s. Molecule `Cc1ccc(CN2CCCn3nc(C(=O)NCc4ccco4)cc3C2=O)cc1` had an RP-LC retention time of 804 s.

Take `Cc1nc(-c2cccc(-c3noc(COc4ccc(Cl)cc4)n3)c2)cs1`: the RP-LC retention time was determined as 1280 s. Molecule `Cc1ccc(C2Cn3cnc(C(=O)N4CCC(C(=O)NCCCc5ccccc5)CC4)c3CO2)cc1` (centres undefined) came in with an RP-LC retention time of 853 s. In turn, `CCSc1nc(NCC(C)C)c2cnn(CCNC(=O)c3cn(C)nc3OC)c2n1` displayed an RP-LC retention time of 749 s. Molecule `Cc1csc(-c2cc(S(=O)(=O)NCCN(C)C)cn2CC(=O)N2CCCCC2)n1` returned an RP-LC retention time of 630 s. The molecule `O=C(c1ccsc1)N1CCCC(OCc2nc(C3CC3)no2)C1` (centres undefined) displayed an RP-LC retention time of 766 s. Then `COc1ccc(NC(=O)CCc2c(C)nn(-c3cc(N(C)C)ncn3)c2C)cc1`, with 733 s; and `O=C(NCc1csc(-c2cccs2)n1)C1CCN(C(=O)c2ccc(F)cc2)CC1`, with 743 s; and `CCc1nnc2ccc(S(=O)(=O)Nc3ccc(F)cc3)cn12`, with 707 s.

`CCCCN(C)c1ncc(C(=O)Nc2ccccc2)c(N)n1` came in with an RP-LC retention time of 702 s. Turning to `Cc1ccc(S(=O)(=O)N2CCOCC2)cc1-c1nnc(-c2ccc(F)cc2)o1`, the RP-LC retention time was 958 s. On to `CCN1C(=O)CCc2cc(NC(=O)Cc3ccc(F)cc3)ccc21`, for which the RP-LC retention time amounted to 780 s.

`O=C(Nc1cc(-c2ccccc2)nn1CCO)c1ccc2nsnc2c1` showed an RP-LC retention time of 764 s.

Consider `Cc1cccc(-n2c(=O)c3c(cc(C)n3C)n(CC(=O)Nc3cccc(Cl)c3C)c2=O)c1`, for which the RP-LC retention time came to 960 s. Molecule `C=CCN1CCN(c2ccc3nnc(CCc4nc(-c5ccc(OC)cc5)no4)n3n2)CC1` had an RP-LC retention time of 603 s.

In the case of `CNC(=O)[C@@H]1C[C@@H](O)CN1C1CCN(C(=O)c2cc(C)oc2C)CC1`, the RP-LC retention time came out at 613 s. As to `Cc1ccc(Cn2c(=O)c(N3CCC(NC(=O)NCC4CCCO4)CC3)nc3cccnc32)cc1` (centres undefined), the RP-LC retention time worked out at 929 s. Turning to `O=C(Cn1nc(Cc2cccnc2)c2ccccc2c1=O)Nc1ccc(Cl)cn1`, the RP-LC retention time came out at 608 s. On to `CCn1cc(-c2ccc(Cl)cc2)cc1C(=O)NCCCN1CCCC1=O`, for which the RP-LC retention time worked out at 879 s. Regarding `COC(=O)c1cccc(Nc2c(-c3cccc(Br)c3)nc3cnccn23)c1`, the RP-LC retention time was found to be 918 s. As for `COCCN1C(=O)c2cc(-c3ccc(OC)c(OC)c3)nn2CC1(C)C(=O)NC1CCCCC1` (centres undefined), the RP-LC retention time is 824 s. `C=C1C(=O)O[C@@H]2[C@H]3O[C@]3(C)CCC=C(C)CC[C@@H]12` showed an RP-LC retention time of 844 s.

`CCOc1ccc(-c2noc(Cc3nnc(-c4ccccc4)o3)n2)cc1` yielded an RP-LC retention time of 1040 s. In the case of `COc1cccc(N2CCN(C(=O)c3[nH]c(C)c(S(=O)(=O)N4CCOCC4)c3C)CC2)c1`, the RP-LC retention time was determined as 772 s.

In turn, `CC1CCN(S(=O)(=O)c2ccc(-c3nnc(C(=O)NCCCN4CCOCC4)o3)cc2)CC1` displayed an RP-LC retention time of 664 s. In turn, `CCn1ncc(NC(=O)c2ccc(C)cc2)c(N2CCOCC2)c1=O` displayed an RP-LC retention time of 816 s. As to `CCc1ccc(NC2CC(=O)N(c3ccc(OC)cc3OC)C2=O)cc1` (centres undefined), the RP-LC retention time worked out at 887 s. `Clc1ccc(-c2noc(Cc3nnc(-c4cccc(Br)c4)o3)n2)cc1`: the RP-LC retention time is 1210 s. The molecule `CC1(C(=O)NCc2ccccc2)CN(S(C)(=O)=O)CC(=O)N1Cc1ccccc1Cl` (centres undefined) gave an RP-LC retention time of 778 s. Take `N#Cc1nnn2c1nc(N)c1c(Cl)cccc12`: the RP-LC retention time stood at 817 s.

Consider `O=C(NC1CC1)[C@@H]1C[C@H](Oc2ccccc2)CN1C(=O)CCc1c[nH]c2ccccc12`, for which the RP-LC retention time is 792 s.

Molecule `CNC(=O)N1CC(C)Oc2ccc(Cl)cc21` (centres undefined) displayed an RP-LC retention time of 806 s. `CCCNc1cc(N2CCC(CCC(=O)N3CCN(C(=O)OCC)CC3)CC2)ncn1` showed an RP-LC retention time of 620 s. In the case of `COc1ccc2c(C)cc(SCC(=O)Nc3c(C)cccc3C)nc2c1` it was 995 s; in that of `O=C(NCCn1cnc(-c2ccccc2)cc1=O)c1ccc2nsnc2c1`, 659 s. In the case of `CN(C)CCNC(=O)c1ccc(Cn2nc(N3CCN(c4ccc(F)cc4)CC3)ccc2=O)o1` it was 588 s; in that of `Cc1cccc(OCC(=O)Nc2cccn3nc(C)nc23)c1`, 834 s. In the case of `CCCC(=O)N1CCC2(CC1)C(=O)N(C)c1ccccc12` it was 764 s. Turning to `Cc1cc(OCC(=O)N2CCC3(O)CCCCC3C2)c2c3c(c(=O)oc2c1)CCCC3` (centres undefined), the RP-LC retention time turned out to be 859 s. Molecule `CN1C(=C=Cc2cc(I)c(O)c(I)c2)C(C)(C)c2ccccc21` came in with an RP-LC retention time of 890 s. As for `CCOC(=O)c1ccc(NC(=O)Cn2cnc3nc(N4CCCC(C(=O)NC)C4)sc3c2=O)cc1` (centres undefined), the RP-LC retention time amounted to 658 s. The molecule `CCCNC(=O)C1CCCN(c2nc(C)nc3onc(CC)c23)C1` (centres undefined) had an RP-LC retention time of 743 s. The molecule `COc1cccc(C(O)CN2CCN(c3ccccc3OC)CC2)c1` (centres undefined) displayed an RP-LC retention time of 659 s. In the case of `COc1cc(CNC(=O)CCc2c(-c3ccc(F)cc3)nc3ccccn23)cc(OC)c1OC`, the RP-LC retention time was 632 s. `CC(C)(C)c1cc(C(=O)NCc2cccnc2)nc2ccnn12` yielded an RP-LC retention time of 657 s. `CC(C)OC(=O)COc1cc(O)c2c(=O)cc(-c3ccccc3)oc2c1` registered an RP-LC retention time of 1170 s.

Molecule `Cn1c(-c2ccccc2)c(C(=O)C(=O)N2CCOCC2)c2ccccc21` came in with an RP-LC retention time of 800 s. In turn, `O=C(Nc1nc2c(s1)CCc1ccccc1-2)c1cccc(F)c1` came in with an RP-LC retention time of 1120 s.

`O=C(NCC(O)Cc1ccccc1)c1c(F)cccc1F` (centres undefined) yielded an RP-LC retention time of 678 s.

As for `CCn1c(=O)c(N2CCCC(C(=O)N3CCN(c4cccc(Cl)c4)CC3)C2)nc2ccccc21` (centres undefined), the RP-LC retention time came out at 1240 s. In turn, `O=C(O)c1nnn(-c2ccc3c(c2)OCO3)c1-c1ccncc1` had an RP-LC retention time of 612 s.

Regarding `Cc1occc1C(=O)N[C@@H]1CN(c2ncccn2)C[C@H]1CO`, the RP-LC retention time is 597 s. Regarding `Cc1nc(-c2cccc(-c3noc(COc4ccc(F)cc4)n3)c2)cs1`, the RP-LC retention time amounted to 1200 s.
